This experiment addresses T1, Glucose-dependent insulinotropic receptor (Homo sapiens, UniProt Q8TDV5).
T1 sequence (Q8TDV5 whole entry): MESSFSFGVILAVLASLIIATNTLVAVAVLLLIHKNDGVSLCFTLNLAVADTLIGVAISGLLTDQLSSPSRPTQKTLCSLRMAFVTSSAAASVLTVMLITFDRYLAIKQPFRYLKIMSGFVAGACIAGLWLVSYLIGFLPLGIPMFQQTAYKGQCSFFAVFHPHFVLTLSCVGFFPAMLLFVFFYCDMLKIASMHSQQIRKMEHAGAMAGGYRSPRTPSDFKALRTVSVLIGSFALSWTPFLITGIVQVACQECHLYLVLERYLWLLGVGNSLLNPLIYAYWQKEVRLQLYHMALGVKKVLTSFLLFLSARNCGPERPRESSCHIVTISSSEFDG
Briefly: AlphaScreen cAMP Assay: MIN6 cells [Miyazaki J et al. Endocrinology. 1990 July; 127(1):126-32] were stably transfected with an expression vector for human GPR119 cDNA (Acc. No. NP-848566). Min-6/hGPR119 cells are cultured in DMEM, 10% FBS, 50 uM beta-mercaptoethanol, 0.3 mg/mL Geniticin, 2 mM GlutaMAX at 37 C. 5% CO2. For the assay, the cells are placed in Optiplates (white, 384-well, 160W-barcoded, TC, sterile with lid, Cat. No. #6007688 (Perkin Elmer); 10000 cells/well; 50 ul). The plates covered with lids are then incubated for 24 hours at 37 C./5% CO2.After the medium has been sucked out of the wells completely, 10 ul of the test compound are added, the compounds are diluted beforehand with stimulating buffer (140 mM NaCl, 3.6 mM KCl, 0.5 mM NaH2PO4, 0.5 mM MgSO4, 1.5 mM CaCl2, 10 mM Hepes, 5 mM NaHCO3; pH 7.4. 0.5 mM IBMX and 0.1% BSA, the final DMSO concentration is 1%). After 45 minutes' incubation at RT, the cAMP concentrations are determined using the AlphaScreen cAMP Assay. The class given is functional, cell-based.
The term EC50 denotes the concentration needed to bring the measured effect to its halfway point. As to `CC[C@H]1CC(=O)NN=C1c1ccc2nc(-c3ccccc3)oc2c1`, the EC50 was more than 10000 nM.

`CC1CC(=O)NN=C1c1ccc2nc(-c3ccsc3)oc2c1` (stereo not drawn): the EC50 stood at 267 nM.

Turning to `CCOc1ccc(-c2nc3ccc(C4=NNC(=O)CC4CC)cc3o2)cc1` (stereo not drawn), the EC50 turned out to be 114 nM.

Source of the values: ChEMBL document CHEMBL3886244, “Benzoxazole- and tetrahydrobenzoxazole-substituted pyridazinones as GPR119 agonists” (2014).
